# Reference: the supplement of paper PMC10307832
# What was measured:
# Assay in all cases: relative viability (nuclei count vs DMSO), 5 days (fraction); higher = more cells survive
# [1] = test system: ABC-1
# Procedure, shortened: (§1)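 Five library-drug doses in √10 steps were combined with a fixed anchor-drug dose, or a single drug was given alone, by pin tool to lung cancer cell lines in 1536-well plates the day after seeding. Nuclei were stained and counted after 5 days. Relative viability is the nuclei count in treated wells over that in vehicle wells, taken as the median of duplicate plates.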
# [2] = test system: CAL-12T
# Procedure, shortened: as §1
# [3] = test system: ChaGo-K-1
# Procedure, shortened: as §1
# [4] = test system: HCC-366
# Procedure, shortened: as §1
# [5] = test system: HCC-78
# Procedure, shortened: as §1
# [6] = test system: LC-2-ad
# Procedure, shortened: as §1
# [7] = test system: LOU-NH91
# Procedure, shortened: as §1
# [8] = test system: LU99A
# Procedure, shortened: as §1
# [9] = test system: NCI-H1395
# Procedure, shortened: as §1
# [10] = test system: NCI-H1651
# Procedure, shortened: as §1
# [11] = test system: NCI-H1734
# Procedure, shortened: as §1
# [12] = test system: NCI-H1755
# Procedure, shortened: as §1
# [13] = test system: NCI-H1793
# Procedure, shortened: as §1
# [14] = test system: NCI-H1944
# Procedure, shortened: as §1
# [15] = test system: NCI-H2087
# Procedure, shortened: as §1
# [16] = test system: NCI-H2170
# Procedure, shortened: as §1
# [17] = test system: NCI-H2228
# Procedure, shortened: as §1
# [18] = test system: NCI-H2405
# Procedure, shortened: as §1
# [19] = test system: NCI-H3122
# Procedure, shortened: as §1
# [20] = test system: NCI-H460
# Procedure, shortened: as §1
# [21] = test system: PC-3 [JPC-3]
# Procedure, shortened: as §1
# [22] = test system: RERF-LC-KJ
# Procedure, shortened: as §1
# [23] = test system: UMC-11
# Procedure, shortened: as §1
compound,measurement,setting,value
Oc1nc(-c2ccc(C(F)(F)F)cc2)nc2c1CSCC2 [XAV939] + COc1cccc2cc(-c3nc([C@H]4CC[C@H](C(=O)O)CC4)n4ncnc(N)c34)[nH]c12 [OSI-027] (partner 0.5 µM),relative viability,[1]; first compound 0.08 µM,0.44
same,relative viability,[1]; first compound 0.253 µM,0.532
same,relative viability,[1]; first compound 0.8 µM,0.374
same,relative viability,[1]; first compound 2.53 µM,0.28
same,relative viability,[2]; first compound 0.08 µM,0.635
same,relative viability,[2]; first compound 0.253 µM,0.363
same,relative viability,[2]; first compound 0.8 µM,0.441
same,relative viability,[2]; first compound 2.53 µM,0.335
same,relative viability,[3]; first compound 0.08 µM,0.562
same,relative viability,[3]; first compound 0.253 µM,0.534
same,relative viability,[3]; first compound 0.8 µM,0.533
same,relative viability,[3]; first compound 2.53 µM,0.472
same,relative viability,[4]; first compound 0.08 µM,0.962
same,relative viability,[4]; first compound 0.253 µM,0.666
same,relative viability,[4]; first compound 0.8 µM,1.03
same,relative viability,[4]; first compound 2.53 µM,0.767
same,relative viability,[5]; first compound 0.08 µM,0.341
same,relative viability,[5]; first compound 0.253 µM,0.361
same,relative viability,[5]; first compound 0.8 µM,0.356
same,relative viability,[5]; first compound 2.53 µM,0.297
same,relative viability,[6]; first compound 0.08 µM,0.907
same,relative viability,[6]; first compound 0.253 µM,0.815
same,relative viability,[6]; first compound 0.8 µM,0.889
same,relative viability,[6]; first compound 2.53 µM,0.864
same,relative viability,[7]; first compound 0.08 µM,0.701
same,relative viability,[7]; first compound 0.253 µM,0.662
same,relative viability,[7]; first compound 0.8 µM,0.69
same,relative viability,[7]; first compound 2.53 µM,0.675
same,relative viability,[8]; first compound 0.08 µM,0.303
same,relative viability,[8]; first compound 0.253 µM,0.348
same,relative viability,[8]; first compound 0.8 µM,0.329
same,relative viability,[8]; first compound 2.53 µM,0.268
same,relative viability,[9]; first compound 0.08 µM,0.656
same,relative viability,[9]; first compound 0.253 µM,0.612
same,relative viability,[9]; first compound 0.8 µM,0.556
same,relative viability,[9]; first compound 2.53 µM,0.634
same,relative viability,[10]; first compound 0.08 µM,0.925
same,relative viability,[10]; first compound 0.253 µM,0.711
same,relative viability,[10]; first compound 0.8 µM,0.838
same,relative viability,[10]; first compound 2.53 µM,0.69
same,relative viability,[11]; first compound 0.08 µM,0.632
same,relative viability,[11]; first compound 0.253 µM,0.551
same,relative viability,[11]; first compound 0.8 µM,0.575
same,relative viability,[11]; first compound 2.53 µM,0.51
same,relative viability,[12]; first compound 0.08 µM,0.731
same,relative viability,[12]; first compound 0.253 µM,0.683
same,relative viability,[12]; first compound 0.8 µM,0.739
same,relative viability,[12]; first compound 2.53 µM,0.585
same,relative viability,[13]; first compound 0.08 µM,0.308
same,relative viability,[13]; first compound 0.253 µM,0.232
same,relative viability,[13]; first compound 0.8 µM,0.298
same,relative viability,[13]; first compound 2.53 µM,0.27
same,relative viability,[14]; first compound 0.08 µM,0.441
same,relative viability,[14]; first compound 0.253 µM,0.393
same,relative viability,[14]; first compound 0.8 µM,0.403
same,relative viability,[14]; first compound 2.53 µM,0.367
same,relative viability,[15]; first compound 0.08 µM,0.833
same,relative viability,[15]; first compound 0.253 µM,0.504
same,relative viability,[15]; first compound 0.8 µM,0.444
same,relative viability,[15]; first compound 2.53 µM,0.46
same,relative viability,[16]; first compound 0.08 µM,0.749
same,relative viability,[16]; first compound 0.253 µM,0.493
same,relative viability,[16]; first compound 0.8 µM,0.643
same,relative viability,[16]; first compound 2.53 µM,0.611
same,relative viability,[17]; first compound 0.08 µM,0.704
same,relative viability,[17]; first compound 0.253 µM,0.467
same,relative viability,[17]; first compound 0.8 µM,0.479
same,relative viability,[17]; first compound 2.53 µM,0.546
same,relative viability,[18]; first compound 0.08 µM,0.605
same,relative viability,[18]; first compound 0.253 µM,0.586
same,relative viability,[18]; first compound 0.8 µM,0.611
same,relative viability,[18]; first compound 2.53 µM,0.598
same,relative viability,[19]; first compound 0.08 µM,1.08
same,relative viability,[19]; first compound 0.253 µM,0.96
same,relative viability,[19]; first compound 0.8 µM,0.91
same,relative viability,[19]; first compound 2.53 µM,0.581
same,relative viability,[20]; first compound 0.08 µM,0.904
same,relative viability,[20]; first compound 0.253 µM,0.555
same,relative viability,[20]; first compound 0.8 µM,0.745
same,relative viability,[20]; first compound 2.53 µM,0.631
same,relative viability,[21]; first compound 0.08 µM,0.756
same,relative viability,[21]; first compound 0.253 µM,0.611
same,relative viability,[21]; first compound 0.8 µM,0.777
same,relative viability,[21]; first compound 2.53 µM,0.599
same,relative viability,[22]; first compound 0.08 µM,0.607
same,relative viability,[22]; first compound 0.253 µM,0.533
same,relative viability,[22]; first compound 0.8 µM,0.464
same,relative viability,[22]; first compound 2.53 µM,0.526
same,relative viability,[23]; first compound 0.08 µM,0.456
same,relative viability,[23]; first compound 0.253 µM,0.478
same,relative viability,[23]; first compound 0.8 µM,0.538
same,relative viability,[23]; first compound 2.53 µM,0.44
